Measured values from patent US8828976B2, “Identification and use of compounds that affect the fidelity of eukaryotic translation initiation codon selection” (priority 2010, dated 2014).
Structures can show the parent of a compound that is named as a salt. Where two headings read alike, the source gives them in different places.

Columns and labels:
[1] = system: AUG start codon of Fluc mRNA; experiment: Dual luciferase counter-screen (FlucAUG/RlucAUG), BY4741 with pFaugRaug; type: cell-based, Saccharomyces cerevisiae; settings: for FlucAUG/RlucAUG ratio in the presence of compound: BY4741, screening conditions
Experimental: The compounds were then tested in secondary assays.
The dual luciferase assay was carried out as in Kolitz et al. (RNA, vol. 15, no. 1, pp. 138-152, 2009), with the following modifications to screening conditions: An over-night culture of wild type yeast (BY4741 transformed with pFuugRaug) were diluted to an OD600 of approximately 0.2 in SC-Ura, and 50 μL were aliquoted to each well of a 96 well plate. BY4741 expressing the RaugFaug plasmid was included in the 1st and last column as an additional control. Compounds to be tested were supplied from the NCI DTP library in 96 well format at 1 mM in DMSO. DMSO was included in all control wells. 1.5 μL of compound (or DMSO) was added to each well of the yeast plate, followed by incubation at 30° C. for 4 hours while shaking. To measure luciferase activity, 1 μL of culture was added directly to 50 μL of 1× Passive Lysis Buffer (Promega), incubated 40-60 minutes at room temperature, then luciferase activity measured using a Turner Modulus Microplate Reader (Kolitz et al., RNA, vol. 15, no. 1, pp. 138-152, 2009). The same protocol was used when testing the other libraries, with the appropriate solvent controls. The Fuug/Raug ratio of each sample with drug was compared to the average Fuug/Raug ratio of the solvent only controls on the same plate.
Changes in the Fluc(UUG)/Rluc(AUG) ratio could be caused by a compound altering the use of UUG as a start codon (the desired target) or a variety of other effects such as changes in transcription of one gene, changes in mRNA or protein half-life, or inhibition or activation of one of the luciferase enzymes. […] Compounds that specifically increase use of near-cognate codons as start sites will not produce an effect in this Fluc(AUG)/Rluc(AUG) assay, whereas compounds that alter other process will not be specific for the Fluc(UUG)/Rluc(AUG) system and will still produce effects with the Fluc(AUG)/Rluc(AUG) reporter. Compounds that are not specific for effects on Fluc(UUG) expression will not be pursued further.

[2] = system: UUG start codon of Fluc mRNA (fidelity of start codon selection); experiment: Dual luciferase assay, primary screen (FlucUUG/RlucAUG), BY4741 with pFuugRaug; type: cell-based, Saccharomyces cerevisiae; settings: for raw FlucUUG value: at concentrations that decrease the other luciferase values
Excerpt: In the assay, Renilla luciferase (Rluc) and firefly luciferase (Fluc) genes are expressed from a single plasmid, each under the control of a separate constitutive promoter and terminator, allowing transcription of the two genes as separate mRNAs. The Fluc mRNA has a non-AUG start codon (FIG. 2A). […] UUG was chosen as the near cognate start site in the screen, allowing easy identification of compounds that either increase expression (chemically reproducing a Sui^− phenotype, decreasing fidelity) or decrease expression (enhancing fidelity) of UUG relative to AUG in the dual luciferase assay.
BY4741 expressing the RaugFaug plasmid was included in the 1st and last column as an additional control. Compounds to be tested were supplied from the NCI DTP library in 96 well format at 1 mM in DMSO. DMSO was included in all control wells. 1.5 μL of compound (or DMSO) was added to each well of the yeast plate, followed by incubation at 30° C. for 4 hours while shaking. […] The same protocol was used when testing the other libraries, with the appropriate solvent controls. The Fuug/Raug ratio of each sample with drug was compared to the average Fuug/Raug ratio of the solvent only controls on the same plate.
Every row contains DMSO-only controls for each strain. For each compound-treated sample, the ratio of [Fluc(UUG)/Rluc(AUG)]/[Fluc(AUG)/Rluc(AUG)] is calculated using the DMSO-only Fluc(AUG)/Rluc(AUG) control from that row (there is one for each row in a plate). This ratio is the Fluc(UUG)/Fluc(AUG) ratio normalized to Rluc(AUG) activity in each sample. […] Potential changes include pipetting inaccuracies, differences in lysis efficiencies or global effects on gene expression due to differences in cell densities during growth. The internal Rluc control also helps screen out compounds that affect gene expression or cell growth globally rather than having specific effects on translation from non-AUG codons.
When a hit was identified, rescreening and counter screening assays were done using 300 μM to 10 nM of the compound, i.e., the identified “hit,” to measure concentration dependence.

[3] = system: Sui- strain sui1-1 (eIF1 D83G); experiment: Growth assay of Sui- strain sui1-1 (his4-303) on SC-His / SC plates with compound-soaked paper strips; settings: for growth of sui1-1 close to the compound source: paper strip with 10 mM NSC92218 or 50 mM NSC218351, FIG. 18 column 1 and 5
Excerpt: Compound or solvent soaked paper strips were placed on agar plates. Yeast were spotted onto the plate as 4 rows increasingly distant from the paper strip and grown for 4 days on SC-His and 2 days on SC.
An additional reporter assay utilizes a yeast strain in which the AUG start codon of the HIS4 gene has been changed to AUU (his4-303) (Huang et al., Genes Dev., vol. 11, pp. 2396-2413, 1997). This strain is a histidine auxotroph and cannot grow on medium lacking histidine. However, Sui^− mutations allow initiation from the AUU start site or, more commonly, a UUG three codons downstream from it, restoring expression of His4p and thus growth on His^− medium (Castilho-Valavicius et al., Genetics, vol. 124, pp. 483-495, 1990; Huang et al., Genes Dev., vol. 11, pp. 2396-2413, 1997; Yoon et al., Mol. Cell. Biol., vol. 12, pp. 248-260, 1992). Observing an alteration of the Sui^− phenotype is a more sensitive assay than rescuing growth of a wild type strain. […] Likewise, if the compound increases the fidelity of initiation, then growth should be compromised.
Yeast with the his4-303 allele from an over-night culture were washed with water and diluted to an OD600 between 0.1-1. Strips of sterile Whatman paper were soaked with compound or solvent and placed on an agar plate of the appropriate media. The yeast culture was spotted onto the plate at various distances from the paper strips. The plates were incubated at 30° C. Diffusion creates a gradient of compound, which tends to enhance growth only in a certain range because of off-setting toxicity at high concentrations.
Chemically increasing use of near-cognate codons as start codons mimics the Sui^− phenotype. Sui^− mutations were originally identified in a screen that requires translation initiation at a non-AUG start codon in a mutant of the HIS4 gene (his4-303 allele) for growth on SC-His media (Donahue et al., Mol. Cell. Biol., vol. 8, no. 7, pp. 2955-2963, 1988). Compounds that increase the use of non-AUG start codons to a small degree should further increase growth of Sui^− strains with the his4-303 allele on SC-His media, chemically enhancing the Sui^− phenotype. To test this, a paper strip saturated with compound was placed onto a plate of media (SC or SC-His). Yeast with the his4-303 allele was spotted on the plate at various distances from the compound- or solvent-containing strips.

[4] = system: FlucUUG/RlucAUG ratio in hc eIF1 strain; experiment: Dual luciferase assay in strain over-expressing eIF1 (H3984, hc eIF1); type: cell-based, Saccharomyces cerevisiae; settings: hc eIF1 vs BY4741; for suppression of the compound's effect on UUG initiation by over-expression of eIF1: 60 μM NSC218351, 3.8 μM NSC92218
Experimental: H3984 data are an average of 2 independent experiments. Error bars represent average deviation. The concentration of NSC218351 was 60 μM, and NSC92218 was 3.8 μM. Haplo-insufficiency results are averages of data from 2 separate transformants. The concentration of NSC218351 was 33 μM, and NSC92218 was 7 μM. FlucAUG/RlucAUG expression ratio with DMSO alone was used to normalize the Fluc/Rluc ratio for both FlucAUG and FlucUUG for each strain (normalized FlucAUG/RlucAUG with DMSO alone is 1 for each strain).
Data, from 2 independent experiments, were analyzed.

yeast cells = experiment: Growth / toxicity to wild type yeast
[5] = system: UUG start codon of PRE2 uORF; experiment: uORF luciferase assay (PRE2 uORF with UUG start codon fused to firefly luciferase); type: cell-based, Saccharomyces cerevisiae; settings: wild type yeast, normalized to DMSO alone
Experimental: BY4741 was transformed with pNTI33 or pNTI32. Transformants were incubated with compound and luciferase activity measured as described for the dual luciferase assay. The solvent-only firefly luciferase activity was used for normalization.
To further validate the effects of compounds that pass the primary and counterscreens, an additional reporter assay was performed. The assay uses a 5′-upstream open reading frame (uORF) that begins with a UUG codon and was shown in yeast to be translated, especially under amino acid starvation conditions (Castilho-Valavicius et al., Genetics, vol. 124, pp. 483-495, 1990). This uORF was fused both in-frame and out-of-frame to the firefly luciferase gene and the effect of the compounds on initiation on this physiologically relevant near-cognate start codon assessed.
This construct was used to assess the effect of the compounds on translation mediated by the non-AUG start codon of the uORFs. The PRE2 uORF has an UUG start codon, with the consensus sequence (−3)AAA(−1) directly upstream of UUG (FIG. 15). In the control reporter, the luciferase coding region is out-of-frame from the start codon of the uORF.

[6] = system: near-cognate start codons; experiment: Dual luciferase assay with Fluc reporters with different near-cognate start codons; type: cell-based, Saccharomyces cerevisiae; settings: Fluc reporter with AUU start codon
Experimental: AAG and AGG are not used detectably as Fluc initiation codons in yeast (Kolitz et al., RNA, vol. 15, no. 1, pp. 138-152, 2009) and were thus not tested. […] Efficiency of use of near cognate codons as initiation sites was measured with the dual luciferase assay in several Sui^− mutant strains. Translation from each alternative start codon in the Sui^− strain was normalized to translation from that codon in a wild type strain. Sui^− mutations increase the use of near cognates up to 18-fold (GUG in eIF1 D83G strain). However, in each mutant strain, translation from AUU is increased the least. Although it is not understood why AUU behaves anomalously, it is interesting that NSC218351 mimics this aspect of the behavior of the Sui^− mutations in initiation factors.

[7] = system: Sui- strains with mutations in eIF1A, eIF2, and eIF5; experiment: Growth of Sui- strains with mutations in other initiation factors; type: cell-based, Saccharomyces cerevisiae
Excerpt: (§1) While small, the effects are reproducible. No effects on growth of Sui^− strains with mutations in other initiation factors (eIF1A, eIF2, and eIF5) have been detected.

Sui- mutant eIF1 D83G = experiment: Growth of Sui- mutant eIF1 D83G in His- culture (doubling time); type: cell-based, Saccharomyces cerevisiae; settings: His- culture with compound; decreased from 8 hrs
Excerpt: Doubling times were quantified for two experiments by plotting Log2(OD600) vs. time. The slope of the line between −2.5<Log2(OD600)<2 equals 1/doubling time.
as §1

[8] = analogs of NSC92218, 8 μM, ratio normalized to DMSO control
[9] = 50 mM on the paper strip, SC-His

COc1cc(N)c2ncccc2c1Cl [Cpd 19, 5-chloro-6-methoxyquinolin-8-amine]
AUG/AUG (counter screen effect) [1, 8]: 0.99 | UUG/AUG (primary screen effect) [2, 8]: 0.94

Nc1cc(I)c2cccnc2c1O [NSC92218, 7-amino-5-iodo-8-quinolinol hydrochloride]
growth of sui1-1 in column 1 on SC-His relative to the inhibitory effect on SC ([3]; 2.5 mM on the paper strip): growth enhancement occurred | growth of sui1-1 on SC-His in columns 2 and 3 ([3]; 10 mM on the paper strip): enhanced growth | growth of sui1-1 close to the compound source [3]: prevented growth | FlucAUG/RlucAUG ratio in the presence of compound [1]: did not change | reduction of the compound's effect in the eIF1 over-expressing strain relative to wild type cells ([4]; 3.8 μM): ~50% | suppression of the compound's effect on UUG initiation by over-expression of eIF1 [4]: partially | increase of the FlucUUG/RlucAUG ratio [2]: 1.8 fold | minimal concentration required to achieve the 1.8-fold increase of the UUG/AUG ratio [2]: 15 µM | raw FlucUUG value [2]: did not change, or increases slightly | concentration that does not affect growth of wild type yeast while the FlucUUG/RlucAUG ratio increases (yeast cells): 2 µM | increase of expression of the in-frame PRE2 uORF-Fluc reporter [5]: ~2 fold

O=C(O)c1nccc2ccccc12 [NSC218351, isoquinoline-1-carboxylic acid]
growth of sui1-1 on SC-His in the column closest to the compound source ([3]; 12.5 mM on the paper strip, column 1): enhanced | growth of sui1-1 on selective media close to the drug source [3, 9]: inhibited | growth of sui1-1 on selective media farther from the source relative to DMSO [3, 9]: enhanced | growth of the eIF1 Sui- strains on His- plates ([3]; His- plates): enhances the growth | growth of sui1-1 close to the compound source [3]: slowed growth | initiation at AUU codons [6]: did not increase | FlucAUG/RlucAUG ratio in the presence of compound [1]: does not change | suppression of the compound's effect on UUG initiation by over-expression of eIF1 [4]: completely suppressed | minimal concentration for the effect, NSC218351 relative to NSC92218 ([2]; 60 μM vs 15 μM, higher for NSC218351): 4 fold | minimal concentration required to achieve the 1.8-fold increase of the UUG/AUG ratio ([2]; BY4741): 60 µM | increase of the FlucUUG/RlucAUG ratio ([2]; BY4741, 4 hours with compound, reached at 60 μM NSC218351 / 15 μM NSC92218): 1.8 fold | raw FlucUUG value [2]: increased slightly | raw RlucAUG value ([2]; pFuugRaug plasmid, increasing concentration): decreased | growth of Sui- strains with mutations in other initiation factors (eIF1A, eIF2, and eIF5) [7]: No effects | toxicity to yeast cells (yeast cells): not toxic | concentration that does not affect growth of wild type yeast while the FlucUUG/RlucAUG ratio increases (yeast cells): 50 µM | concentration at which growth was reduced (yeast cells; yeast): 300 µM | working concentrations at which toxicity is not a concern (yeast cells; yeast): 10 to 100 µM | doubling time of eIF1 D83G (Sui- mutant eIF1 D83G): 7.35 h | increase of expression of the in-frame PRE2 uORF-Fluc reporter [5]: approximately 1.5 fold

C[C@@H]1C[C@@H]([C@H](O)CC2CC(=O)NC(=O)C2)C(=O)[C@@H](C)C1 [cycloheximide, reference compound]
FlucAUG/RlucAUG ratio in the presence of compound [1]: also altered | effect on FlucUUG/RlucAUG ratio ([2]; BY4741 grown under screening conditions): altered | raw luciferase values relative to control values ([2]; cells grown under screening conditions, four hours): ~25%
